From publication PMC9322052, “Synthesis and Biological Activity Screening of Newly Synthesized Trimethoxyphenyl-Based Analogues as Potential Anticancer Agents” (Molecules, 2022)

Legend:
Type in all cases: cell-based, human
[1] = system: HepG2 cells; assay: Cell cycle analysis by PI staining / FACS; details: 48 h
Description: It is well documented that exposure to microtubule targeting agents leads to the malformed mitotic spindle which eventually leads to cell cycle arrest at the G2/M phase and apoptosis induction. Thus, the effect of the selected candidate 9 on the cell cycle progression of the HepG2 cell line was examined by flow cytometry analysis (FACS). The HepG2 cell line was treated with the IC50 concentration of compound 9 for 48 h.
Cell cycle analysis in HepG2 cells was carried out by FACS analysis according to the manufacturer’s directions. See Section 3.3.3 in Supplementary Material.
Figure 3 Compound 9 induces G2/M phase disturbance in HepG2 cells. (A) HepG2 cells were treated with 1.38 μM of compound 9 for 48 h. […]
(§1) To measure the cytotoxic activity of the synthesized derivatives 2a-11 in hepatocel-lular carcinoma (HepG2) cell line (ATCC Cat No. HB-8065) as well as normal human liver cell line HL-7702 (ATCC Cat. No. 77402), cell viability assay was assessed using MTT assay method. […] The color inten-sity of the formazan product, which represents the growth condition of the cells, is quan-tified by using an ELISA plate reader (EXL 800, USA) at 570 nm absorbance. […]
(§2) Compounds 9, 10 and 11 were evaluated for their tubulin inhibitory activity levels according to the manufacturer’s instructions using # abcam Human Beta-tubulin simplestep […]

[2] = system: hepatocellular carcinoma HepG2 cell line; assay: MTT cytotoxicity assay, HepG2; details: Homo sapiens, HepG2, 24 h, 24 h treatment, mean ± SE
Description: All the newly synthesized analogs were evaluated for their in vitro cytotoxicity against the hepatocellular carcinoma HepG2 cell line. Podo was utilized as a reference control in the current study. […] The N-phenyl triazinone derivative 9 was further investigated for its cytotoxic effects against normal liver cell line HL-7702.
MTT colorimetric assay was carried out to investigate the impact of the newly synthesized compounds 2–11 on hepatocellular carcinoma (HepG2) and normal liver cell line (HL-7702) cell lines. See Section 3.3.1 in Supplementary Material.
(§3) 3.3.1. Cytotoxic activity evaluation
To measure the cytotoxic activity of the synthesized derivatives 2a-11 in hepatocel-lular carcinoma (HepG2) cell line (ATCC Cat No. HB-8065) as well as normal human liver cell line HL-7702 (ATCC Cat. No. 77402), cell viability assay was assessed using MTT assay method. Cells at density of 1 x 104 were seeded in a 96-well plate at 37 °C for 24 h under 5% CO2. After incubation, the cells were treated with different concentrations of the test compounds 2a-11 and incubated for 24 h, then 20 μl of MTT solution at 5 mg/mL was applied and incubated for 4 h at 37 °C. Dimethyl sulphoxide (DMSO) in volume of 100 µl was added to each well to dissolve the purple formazan that had formed. The color inten-sity of the formazan product, which represents the growth condition of the cells, is quan-tified by using an ELISA plate reader (EXL 800, USA) at 570 nm absorbance. The experi-mental conditions were carried out with at least three replicates, and the experiments were repeated at least three times.
3.3.2. Tubulin inhibitions Assay
as §2
3.3.3. Cell cycle analysis of compound 9
Cell cycle analysis in HepG2 cells was investigated using fluorescent Annexin V-FITC/ PI detection kit (BioVision EZCellTM Cell Cycle Analysis Kit Catalog #K920) by flow cytometry assay. HepG2 cells at a density of 2 × 10^5 per well were harvested and washed twice in PBS. After that, the cells were incubated at 37 °C and 5% CO2. […] Afterward, medium was stained with DNA flu-orochrome PI for 15 min at 37 °C. The samples were immediately analyzed using Facs Calibur flow cytometer (Becton and Dickinson, Heidelberg, Germany).
3.3.4. Apoptosis assay for compound 9
Apoptosis in HepG2 cells was investigated using fluorescent Annexin V-FITC/ PI de-tection kit (BioVision Annexin V-FITC Apoptosis Detection Kit, Catalog #: K101) by flow cy-tometry assay. HepG2 cells at a density of 2 × 10^5 per well were treated with compound 9 at its IC50 (μM) for 48 h, then the cells were harvested and stained with Annexin V-FITC/ PI dye for 15 min in the dark at 37 °C. The samples were immediately analyzed using FACS Calibur flow cytometer (Becton and Dickinson, Heidelberg, Germany).
3.3.5. Measurement of mitochondrial membrane potential (MMP) for compound 9 MMP was measured by FACS analysis using abcam ab113852TMRE Mitochondrial Membrane Potential Assay Kit with DiOC2(3) staining using MitoProbe™ DiOC2(3) Assay Kit for Flow Cytometry (M34150). After treatment with compound 9 at its IC50 concentra-tion, cells were stained with DiOC2(3) dye for 30 min in the incubator, then harvested and washed with PBS. DiOC2(3)-stained cells were represented with Annexin binding buffer and incubated at 37 °C for 15 min. The samples were immediately analyzed using cell […]
3.3.6. Effect on p53, Bax and Bcl-2 p53, Bax and Bcl2 enzyme activities in HepG2 cells were detected in the presence of com-pound 9 at its IC50 concentration (μM). The levels of the tumor suppressor gene p53, apoptotic markers Bax as well as the anti-apoptotic marker Bcl-2 were assessed using p53 ELISA kit, Human Bax ELISA kit and Bcl-2 Elisa kit. […]

[3] = system: HepG2 cells; assay: Annexin V-FITC/PI dual staining apoptosis assay
Description: The extent of apoptosis induced by compound 9 in HepG2 cells was quantified by the FACS analysis. Cells were harvested after 48 h and analyzed for apoptosis percentage by flow cytometry.
[…] analysis in HepG2 cells was carried out by FACS analysis according to the manufacturer’s directions. See Section 3.3.4 in Supplementary Material.
Figure 4 Compound 9 induces apoptosis in HepG2 cells. (A) HepG2 cells were treated with 1.38 μM of compound 9 for 48 h. Cell apoptosis was quantized by Annexin V-FITC/PI dual staining assay using image-based cytometry. (B) The quantification of HepG2 cell apoptosis.
as §3
as §1, with “method. Cells at density of 1 x 104 were seeded in a 96-well plate at 37 °C for 24 h under 5% CO2.” for “method.”
as §2
Cell cycle analysis in HepG2 cells was investigated using fluorescent Annexin V-FITC/ PI detection kit (BioVision EZCellTM Cell Cycle Analysis Kit Catalog #K920) by flow cytometry assay. […] The samples were immediately analyzed using Facs Calibur flow cytometer (Becton and Dickinson, Heidelberg, Germany). […]
Apoptosis in HepG2 cells was investigated using fluorescent Annexin V-FITC/ PI de-tection kit (BioVision Annexin V-FITC Apoptosis Detection Kit, Catalog #: K101) by flow cy-tometry assay. […] The samples were immediately analyzed using FACS Calibur flow cytometer (Becton and Dickinson, Heidelberg, Germany).
3.3.5. […] The samples were immediately analyzed using cell […]

[4] = HepG2, IC50 concentration, 48 h

SMILES: COc1ccc(C2=N/C(=C\c3cc(OC)c(OC)c(OC)c3)C(=O)NN2c2ccccc2)cc1OC [Compound 9, (Z)-3-(3,4-Dimethoxyphenyl)-2-Phenyl-5-(3,4,5-Trimethoxybenzylidene)-1,2-Dihydro-1,2,4-Triazin-6(5H)-one]
- G2/M cell population percentage ([1]; HepG2, 1.38 μM (IC50), control 13.28%): 30.83%
- fold increase in G2/M cell population compared to untreated control ([1]; HepG2, IC50 concentration): ~3 fold
- IC50 [2]: 1.38 ± 0.15 µM
- increase in Annexin-V-positive cells compared with untreated control ([3]; HepG2): ~18 fold
- increase in percentage of early apoptosis compared with untreated control [3, 4]: 16.63 fold
- increase in percentage of late apoptosis compared with untreated control [3, 4]: 60.11 fold
